From PMC7497641, “Neurotropic activity and safety of methylene-cycloalkylacetate (MCA) derivative 3-(3-allyl-2-methylenecyclohexyl) propanoic acid” (ACS Chemical Neuroscience, 2020)

What was measured:
[1] = target: T1, Dopamine Receptor D1 (DRD1) (Homo sapiens, UniProt P21728); test: SAFETYscan GPCR cAMP; type: cell-based
T1 construct: host or cells: cAMP Hunter cell lines

[2] = target: T2, 5-Hydroxy tryptamine (Serotonin) Receptor 1A (HTR1A) (Homo sapiens, UniProt P08908); test: SAFETYscan GPCR cAMP; type: cell-based
T2 construct: host or cells: cAMP Hunter cell lines

[3] = system: neurons from the spinal cord; test: Spinal cord neuron survival; type: cell-based, rat; details: in the presence of HU-MCA-13; 48 h in culture
Procedure: We also examined whether HU-MCA-13 would promote the survival of neurons from the spinal cord, by counting the number of neurons remaining after 48 h in culture. From our counts we estimated that 58 ± 10% of the neurons present at 3 h after plating survived for 48 h in the presence of HU-MCA-13, compared with only 35 ± 5% for neurons cultured without HU-MCA-13.
Spinal cords were isolated from adult rats (4–6 months old), and the meninges were removed from the spinal cord. The spinal cord was then cut into small pieces and collected in cold Hibernate A (Brainbits, Springfield, IL, USA), glutamine (0.5 mM), and B27 (Invitrogen, Carlsbad, CA). Briefly, dissected pieces of adult rat spinal cord tissue were maintained in phosphate-buffered saline (PBS) without Ca^2+ and Mg^2+ and pooled together and transferred to an enzymatic dissociation media containing 20 IU/ml papain in Earle’s balanced salt solution (Worthington Biochemical, Freehold, NJ) and incubated for 30 min at 37 °C. […] Neurite outgrowth was measured and presented as mean length of a neurite (microns). To measure neuronal survival, 450 cells were counted in 10 randomly chosen microscope fields of a known area in each of the three dishes per condition using a 20× objective and phase-contrast optics. […]

T2 sequence (P08908 whole entry): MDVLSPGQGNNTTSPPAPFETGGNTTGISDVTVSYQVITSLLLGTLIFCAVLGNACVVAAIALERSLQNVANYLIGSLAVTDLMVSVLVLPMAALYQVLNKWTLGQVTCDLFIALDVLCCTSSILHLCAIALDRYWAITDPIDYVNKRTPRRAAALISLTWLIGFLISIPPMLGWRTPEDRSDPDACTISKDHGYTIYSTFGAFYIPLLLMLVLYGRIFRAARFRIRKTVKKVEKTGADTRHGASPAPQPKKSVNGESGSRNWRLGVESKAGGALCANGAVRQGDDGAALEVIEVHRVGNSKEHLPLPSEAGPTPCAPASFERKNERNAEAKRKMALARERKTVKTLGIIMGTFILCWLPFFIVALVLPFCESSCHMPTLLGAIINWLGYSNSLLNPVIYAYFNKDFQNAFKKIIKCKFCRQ
T1 sequence (P21728 whole entry): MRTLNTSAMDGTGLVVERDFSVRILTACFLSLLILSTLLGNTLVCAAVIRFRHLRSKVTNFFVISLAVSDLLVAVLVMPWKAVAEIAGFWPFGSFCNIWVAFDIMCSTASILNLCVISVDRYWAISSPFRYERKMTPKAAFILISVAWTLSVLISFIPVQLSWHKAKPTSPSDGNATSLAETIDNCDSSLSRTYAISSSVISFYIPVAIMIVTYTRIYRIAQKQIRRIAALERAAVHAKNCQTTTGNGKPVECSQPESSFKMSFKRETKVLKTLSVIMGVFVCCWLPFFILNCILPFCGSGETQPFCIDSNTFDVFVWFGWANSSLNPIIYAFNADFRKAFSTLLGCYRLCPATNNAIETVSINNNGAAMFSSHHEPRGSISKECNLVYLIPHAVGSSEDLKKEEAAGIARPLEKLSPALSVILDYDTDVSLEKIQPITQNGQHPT

C=CCC1CCCC(CCC(=O)O)C1=C (centres unmarked) [HU-MCA-13, 3-(3-allyl-2-methylenecyclohexyl)propanoic acid]
EC50 [1]: > 10 µM | IC50 [1]: > 10 µM | EC50 [2]: > 10 µM | IC50 [2]: > 10 µM | neurons present at 3 h after plating that survived for 48 h [3]: 58 ± 10%
